A short description of data set [1]: CMC by uptake of fluorescent dye 1,6-diphenylhexatriene, fluorescence spectroscopy. Particulars: for CMC: Table 2, dye uptake versus concentration monitored by fluorescence spectroscopy; for CMC (Critical Micelle Concentration): uptake of 1,6-diphenylhexatriene, 25 mM sodium phosphate pH 6.9, Table 1 and text. Format: physicochemical. The method, then: The CMCs of detergents 4.65-4.72 were determined by monitoring the uptake of a fluorescent dye (1,6-diphenylhexatriene) with increasing detergent concentration (Table 1, CMC's determined by dye uptake versus concentration monitored by fluorescence spectroscopy). The CMCs of N-oxide isomers 4.65, 4.67, and 4.68 are very similar: 3 mM, 3 mM, and […], respectively. […] The CMCs for the N-oxides 4.65 and 4.66 are twice the CMCs of the corresponding hydrochloride salts (4.78 and 4.79). The hydrochloride salts were formed from the amine precursors to the N-oxides. Most cationic detergents have CMCs that are much higher than non-ionic or zwitterionic analogs. For example, dodecylammonium bromide has a CMC of 15 mM which is >7 times larger than the CMC of the N-oxide analog (LDAO, CMC=2 mM).
The CMCs of 4.100 and 4.104 were determined by the uptake of the fluorescent dye 1,6-diphenylhexatriene. The CMCs are 0.125 mM and 0.700 mM respectively. These values are substantially lower than the CMC of 4.65, which was determined to be 3 mM.
The CMC of a detergent can be determined experimentally by measuring the solubilization of a water-insoluble dye or fluorophore while varying the concentration of detergent. CMC may also be determined by measuring the diminution of the surface tension of an aqueous solution as a function of detergent concentration. (CMC's determined by either method correlate with each other.) The CMC is determined by extrapolating the plot of solubilization vs. concentration (or surface tension vs. concentration) in the two linear regions above and below the CMC. Where the two lines intersect is the CMC. In this Example, CMC's were determined by the method of Nugebauer, J. M. (1990), Methods in Enzymology, 182:239-253:
Tripod solutions in aqueous solutions containing 25 mM sodium phosphate pH 6.9 were prepared and transferred to screw-capped vials, and […] of a 1,6-diphenylhexatriene solution (DPH, 3.125 mM DPH in THF) was added. The solutions were vortexed at room temperature for 30 seconds. The solutions were placed into a 3 mm×3mm quartz cell and the fluorescence spectrum was obtained (excitation 358 nm, emission 430 nm, excitation slit width=1 mm, emission slit width=20 nm, PMT voltage=700). The fluorescence intensity of each sample was plotted against amphiphile concentration. […] The data points immediately surrounding the CMC were not considered due to non-linear behavior. See Tables 1 and 2, above, for the results.

A further data set in a line: Aqueous solubility. In kind it is physicochemical. Particulars: for solubility on adding small amounts of ethanol or ethyl acetate: aqueous suspensions plus ethanol or ethyl acetate.
For a further data set, the target named is T1, Bacteriorhodopsin (BR) (Halobacterium salinarum, UniProt P02945).
T1 construct: We used BR solubilization from the PM to evaluate tripod detergents; endogenous in cells
T1 sequence (P02945 14-261 limits assumed): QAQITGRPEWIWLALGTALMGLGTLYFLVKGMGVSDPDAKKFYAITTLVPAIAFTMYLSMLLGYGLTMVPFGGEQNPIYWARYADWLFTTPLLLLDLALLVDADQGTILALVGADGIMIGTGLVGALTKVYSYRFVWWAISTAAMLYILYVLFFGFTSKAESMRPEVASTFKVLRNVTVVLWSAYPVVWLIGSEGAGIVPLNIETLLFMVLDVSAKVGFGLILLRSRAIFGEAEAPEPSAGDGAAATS
The data set is described as follows: Solubilization of bacteriorhodopsin (BR) from purple membrane (PM). The method, then:
We used BR solubilization from the PM to evaluate tripod detergents synthesized using the modular synthetic approach described above. The retinal chromophore of BR allowed us to quantify solubilized material by UV. Solubilized BR is defined as the intact protein left in the supernatant after a sample is centrifuged for 30 minutes at 300,000 g. The percent BR solubilized is determined by dividing the absorbance of the supernatant by the absorbance of the solution before centrifugation.
Solubilization experiments were conducted by making a series of solutions with constant concentration of PM and varying the concentration of detergent. […] The absorbance at the λmax (between 540 nm and 570 nm) was then measured, and immediately afterward the samples were centrifuged for 30 minutes at 300,000 g. The supernatant was carefully removed so as not to disturb pelleted material. Absorbance measurements were made again, and the ratio of the supernatant absorbance to the absorbance before centrifugation provided the percent solubilization.

The test system of another data set is BR. Description: Loss of exciton coupling of BR by CD spectra (rate of solubilization). Also noted: species or system Halobacterium. Conditions: room temperature. As to the method:
Tripod detergents 4.65 and 4.66 were tested in this fashion and shown to solubilize BR from the PM quite rapidly. To measure whether the solublized BR was present in a monomeric state, CD spectra of the supernatants were taken. When suspended within the native PM, BR yields a distinct sigmoidal CD spectrum due to exciton coupling between adjacent retinal chromophores. It has been shown that the strength of the exciton coupling is directly proportional to the concentration of retinal chromophore in the PM. Because the exciton coupling requires retinals to be held in a fixed geometry (as when suspended in the PM), the solubilization of BR can be measured in terms of the loss of exciton coupling. […] Exciton coupling was completely gone after less than 10 minutes for samples solubilized by 4.65 and 4.66, a time period which is faster than the time required to obtain a CD spectrum.

In brackets after ≈: the same amount, converted by molar mass. Several values for one entry are separate records, joined by “and”; a condition that tells them apart may be missing. Identical values can stand only once. Entries after “also recorded” stand apart in the source; their conditions may differ.

The solubility is the dissolved amount per volume that the medium holds.

In the case of `CCCCCCC(CCCC)(CCCC)CC(=O)N(CCCN(C)C)CCCN(C)C` [Detergent 4.92], the CMC in data set [1] worked out at 1 mM.

For the molecule `CCCCC(CCCC)(CC(=O)NCC(C)(C)C[N+](C)(C)[O-])c1ccccc1` [Detergent 4.70], in data set [1], the “CMC of 4.70 relative to that of 4.68” value was “six times larger” and the “CMC (Critical Micelle Concentration)” value stood at 7.5 mM.

On to `CCCCC(CCCC)(CC(=O)N(CCC[N+](C)(C)[O-])CCC[N+](C)(C)[O-])c1ccccc1` [Detergent 4.71], for which the “CMC (Critical Micelle Concentration)” value in data set [1] is 10 mM.

Consider `CN(C)CCCN(CCCN(C)C)C(=O)CC1(C2CCCCC2)CCCCCCC1` [Detergent 4.95], for which the CMC in data set [1] turned out to be 24 mM. `CCCCC(CCCC)(CC(=O)NCC(C)(C)CN(C)C)c1ccccc1` [Detergent 4.83]: the “CMC (Critical Micelle Concentration)” value in data set [1] is on record as 14.7 mM.

With `CN(C)CCCN(CCCN(C)C)C(=O)CC(c1ccc(C(C)(C)C)cc1)(c1ccc(C(C)(C)C)cc1)c1ccc(C(C)(C)C)cc1` [Detergent 4.91], the CMC entry in data set [1] was “insol”. With `CC(C)(C)c1ccc(C(CC(=O)N(CC[N+](C)(C)[O-])CC[N+](C)(C)[O-])(c2ccc(C(C)(C)C)cc2)c2ccc(C(C)(C)C)cc2)cc1` [Detergent 4.59], the “solubility on adding small amounts of ethanol or ethyl acetate” value in the data set “Aqueous solubility” is recorded as “greatly increased”. Moreover, the “solubility in water (in words)” value in “Aqueous solubility” (water) is reported as “insoluble in water”. As to `CCCCCCC(CC(=O)N(CC[N+](C)(C)[O-])CC[N+](C)(C)[O-])(c1ccccc1)c1ccccc1` [Detergent 4.55], at Bacteriorhodopsin (BR), the “BR solubilization (in words)” value is “readily solubilize BR”.

`CCCCC(CCCC)(CCCC)CC(=O)N(CCCN(C)C)CCCN(C)C` [Detergent 4.93]: in data set [1], the CMC is listed as 6 mM. `CCCCC(CCCC)(CC(=O)NCCC[N+](C)(C)[O-])c1ccccc1` [Detergent 4.66]: in data set [1] (4.65 vs 4.78, 4.66 vs 4.79), the “CMC of N-oxide relative to corresponding hydrochloride salt” value is “twice”. For the same molecule, the “CMC (Critical Micelle Concentration)” value in data set [1] worked out at 4.5 mM. Also, in the data set on BR, the “rate of BR solubilization (in words)” value was “quite rapidly; also recorded: too rapid to monitor the loss of exciton coupling” and the “time to complete loss of exciton coupling” value is reported as “less than 10 minutes”. For the same molecule, on Bacteriorhodopsin (BR), the “BR solubilization (in words)” value is “readily solubilize BR; also recorded: can solubilize BR”. On to `CCCCC(CCCC)(CC(=O)N(C)CCC[N+](C)(C)[O-])c1ccccc1` [Detergent 4.67], for which the “CMC (Critical Micelle Concentration)” value in data set [1] is on record as 3 mM. For the molecule `CN(C)CCCN(CCCN(C)C)C(=O)CC(c1ccccc1)(c1ccccc1)c1ccccc1` [Detergent 4.88], the CMC in data set [1] worked out at 30 mM. With `CCCCC(CCCC)(CC(=O)NCCCN(C)C)c1ccccc1` [Detergent 4.79], the “CMC (Critical Micelle Concentration)” value in data set [1] was 2.8 mM. Take `CCCCC(CCCC)(CCOC1O[C@H](CO)[C@@H](O[C@H]2O[C@H](CO)[C@@H](O)[C@H](O)[C@H]2O)[C@H](O)[C@H]1O)c1ccccc1` (stereo partly shown) [A.2.5]: in the data set “Aqueous solubility” (water), the “solubility in water (in words)” value was “sparingly soluble in water”. For the same molecule, the “BR solubilized from the purple membrane” value on Bacteriorhodopsin (BR) is reported as “approximately 50%”. Take `CN(C)CCCN(CCCN(C)C)C(=O)CC(c1ccccc1)(c1ccccc1)c1ccc(C(C)(C)C)cc1` [Detergent 4.89]: the CMC in data set [1] is on record as 3 mM. Still for that read-out and setting: the same measure for `CCCCC(CC(=O)N(CCCN(C)C)CCCN(C)C)(C1CCCCC1)C1CCCCC1` [Detergent 4.94]: 3 mM. On to `CCCCC(CCCC)(CC(=O)N(C)CCCN(C)C)c1ccccc1` [Detergent 4.80], for which the “CMC (Critical Micelle Concentration)” value in data set [1] was 5 mM. In turn, `CCCCC(CCCC)(CC(=O)N(CCCN(C)C)CCCN(C)C)C1CCCCC1` [Detergent 4.96] showed a CMC in data set [1] of 4.6 mM. Consider `CCCCC(CCCC)(CC[N+](C)(C)[O-])c1ccccc1` [Detergent 4.69], for which the “CMC (Critical Micelle Concentration)” value in data set [1] came to 2.5 mM.

Regarding `CCCCC(CCCC)(CC(=O)N(CCCN(C)C)CCCN(C)C)c1ccccc1` [Detergent 4.84], in data set [1], the CMC is given as 24 mM and the “CMC (Critical Micelle Concentration)” value is on record as 24 mM. On to `CCCCC(CCCC)(CC(=O)N(CC[N+](C)(C)[O-])CC[N+](C)(C)[O-])c1ccccc1` [Detergent 4.37], for which the BR solubilization entry is “greater than 90%” at Bacteriorhodopsin (BR) (after mixing for approximately 20 hrs); greater than 90% on Bacteriorhodopsin (BR) (first batch (about twice as much impurity 4.63)); < 50% and 50% at Bacteriorhodopsin (BR) (second batch). In the case of `CCCCC(CC(=O)N(CC[N+](C)(C)[O-])CC[N+](C)(C)[O-])(C1CCCCC1)C1CCCCC1` [Detergent 4.56], the “BR solubilization (in words)” value on Bacteriorhodopsin (BR) was “readily solubilize BR”. Consider `CN(C)CCCN(CCCN(C)C)C(=O)CC1(c2ccccc2)CCCCCCC1` [Detergent 4.85], for which, in data set [1], the CMC is reported as 80 mM. Turning to `C[N+](C)([O-])CCN(CC[N+](C)(C)[O-])C(=O)CC(c1ccc(-c2ccccc2)cc1)(c1ccc(-c2ccccc2)cc1)c1ccc(-c2ccccc2)cc1` [Detergent 4.62], in the data set “Aqueous solubility”, the “solubility on adding small amounts of ethanol or ethyl acetate” value is listed as “greatly increased”. The “solubility in water (in words)” value in “Aqueous solubility” (water) is “insoluble in water”. In the case of `CCCCC(C)(CCCC)c1ccc(C(=O)N(CC)CC[N+](C)(C)[O-])cc1` [Detergent 4.104], the “CMC (Critical Micelle Concentration)” value in data set [1] is recorded as 0.700 mM. On to `CCCCCCCCCCc1ccc(C(=O)N(CC)CC[N+](C)(C)[O-])cc1` [Detergent 4.100], for which the “CMC (Critical Micelle Concentration)” value in data set [1] stood at 0.125 mM. Take `CCCCC(CCCC)(CC(=O)NC(C)(C)C[N+](C)(C)[O-])c1ccccc1` [Detergent 4.68]: in data set [1], the “CMC (Critical Micelle Concentration)” value stood at 1.2 mM. On to `CN(C)CCCN(CCCN(C)C)C(=O)CC(c1ccc(-c2ccccc2)cc1)(c1ccc(-c2ccccc2)cc1)c1ccc(-c2ccccc2)cc1` [Detergent 4.90], for which, in data set [1], the CMC result is “insol”. `CCCCC(CC(=O)N(CCCN(C)C)CCCN(C)C)(c1ccccc1)c1ccccc1` [Detergent 4.86] had a CMC in data set [1] of 21 mM. With `CCCCCCC(CCCC)(CCCC)CC(=O)N(CC[N+](C)(C)[O-])CC[N+](C)(C)[O-]` [Detergent 4.39], the BR solubilization entry at Bacteriorhodopsin (BR) (after 11 days) is given as “approximately 30%”. Turning to `CCCCC(CCCC)(CC(=O)NC(C)(C)CN(C)C)c1ccccc1` [Detergent 4.81], the solubility in “Aqueous solubility” (water, Table 1, no dye uptake up to this limit, read-out: solubility limit) was roughly 12.5 mM (≈ 4510 µg/mL). For the same molecule, the “CMC (Critical Micelle Concentration)” value in data set [1] is “Does not take up dye up to solubility limit”. Regarding `CCCCCCC(CC(=O)N(CCCN(C)C)CCCN(C)C)(c1ccccc1)c1ccccc1` [Detergent 4.87], in data set [1], the CMC was 4 mM.

Take `CCCCC(CCCC)(CC(=O)N(CC)CCN(C)C)c1ccccc1` [Detergent 4.78]: the “CMC (Critical Micelle Concentration)” value in data set [1] came to 1.3 mM. Turning to `CCCCC(CCCC)(CCN(C)C)c1ccccc1` [Detergent 4.82], in data set [1], the “CMC (Critical Micelle Concentration)” value is 5 mM.

These data come from patent US6172262A, “Amphiphilic agents for membrane protein solubilization” (priority 1999, dated 2001).
